The values that follow are results of earlier work, collected in patent US20080194655A1, “ZERO ORDER CONTROLLED RELEASE COMPOSITIONS OF TIZANIDINE” (priority 2007, published 2008).

The test system of the series is cognitive function (attention). Particulars: doses of 0.5-0.7 g/kg alcohol.

With `CCO` [alcohol], the “peak impairment (decrement) in Power of Attention compared to baseline” value is recorded as “about 150 msec”.
